From PubChem BioAssay (NCI)
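Growth conditions: 96-well plates. Treatment: test compound, 48 hours, 5 concentrations. Analysis: linear interpolation between bracketing concentrations; unreached endpoints set to highest concentration. The concentration for 50% growth inhibition is given as GI50. TGI marks complete inhibition of growth.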

Key:
Test in all cases: inhibition of tumour cell growth, NCI panel, 48 h
BT-549 breast = test system: BT-549 breast
CAKI-1 renal = test system: CAKI-1 renal
DU-145 prostate = test system: DU-145 prostate
LOX IMVI melanoma = test system: LOX IMVI melanoma
M14 melanoma = test system: M14 melanoma
MDA-MB-231 breast = test system: MDA-MB-231 breast
NCI-H522 lung = test system: NCI-H522 lung
OVCAR-8 ovarian = test system: OVCAR-8 ovarian
SK-MEL-2 melanoma = test system: SK-MEL-2 melanoma
SK-MEL-28 melanoma = test system: SK-MEL-28 melanoma

Compound	TGI (BT-549 breast) [µM]	TGI (CAKI-1 renal) [µM]	TGI (DU-145 prostate) [µM]	TGI (LOX IMVI melanoma) [µM]	TGI (M14 melanoma) [µM]	TGI (MDA-MB-231 breast) [µM]	TGI (NCI-H522 lung) [µM]	TGI (OVCAR-8 ovarian) [µM]	TGI (SK-MEL-2 melanoma) [µM]	TGI (SK-MEL-28 melanoma) [µM]	GI50 (BT-549 breast) [µM]	GI50 (CAKI-1 renal) [µM]	GI50 (DU-145 prostate) [µM]	GI50 (LOX IMVI melanoma) [µM]	GI50 (M14 melanoma) [µM]	GI50 (MDA-MB-231 breast) [µM]	GI50 (NCI-H522 lung) [µM]	GI50 (OVCAR-8 ovarian) [µM]	GI50 (SK-MEL-28 melanoma) [µM]	GI50 (SK-MEL-2 melanoma) [µM]
COc1c2c(c3c(c1CCC(=O)O)OC(C)(C)C=C3)OC(C)(C)C=C2	> 100	> 100	> 100	> 100	> 100	> 100	> 100	> 100	> 100	> 100										
O=C(Cn1ccc(=O)[nH]c1=O)Nc1ccc(C(=O)O)c(O)c1	> 100	> 100	> 100	> 100	> 100	> 100	> 100	> 100	> 100	> 100										
Cc1ccc(/C=C2\CN(C(=O)OC(C)(C)C)C/C(=C\c3ccc(C)cc3)C2=O)cc1	28.7	> 100	> 100	> 100	> 100	> 54.3	> 100	> 100	> 100	> 100	0.221	0.576	0.158	0.0743	0.0608	1.22	0.159	0.918	11.6	
CCN(CC)CCn1ccc(=O)c2cc3c(=O)ccn(CCN(CC)CC)c3c(C)c21	29.2	18.3	20.7	7.55	22.5	18.3	20.7	15.5	24.5	35.1										
CCCCCn1c(=N)n(CC(O)COc2cccc(C)c2)c2ccccc21 (centres undefined)	23.3	21.2	24	11.6	12.3	18.8	20	5.04	18.4	14.7	9.22	6.95	11.4	3.25	3.26	5.39	5.7	2.11	3.95	5.68
C[C@@H](C(=O)Nc1ccc(Cl)cc1)C1CCC(c2ccnc3ccc(F)cc23)CC1 (some centres undefined)	22.8	> 100	> 100	21.3	> 100	48	70.5	> 100	29.8	> 100	3.72	6.23	12.6	5.85	7.12	7.83	10.7	21	10.4	9.81
Cc1[c-]onc1C.Cc1[c-]onc1C.[Ag].[Ag].[NH-]S(=O)(=O)c1ccc(N=Nc2cc(N=Nc3ccc(S([NH-])(=O)=O)cc3)c3c(NC(=O)C(Cl)Cl)cccc3c2OC(=O)C(Cl)Cl)cc1	14.8	14.2	14.8	18.3	18.4	19.1	14	36.4	15.9	17	7.57	7.12	7.38	7.75	8.18	5.44	1.75	10.1	8.18	6.89
Cc1ccc2c(ccc3c[n+]4c5ccccc5ccc4n32)c1	2.41	> 100	12.3	3.25	4.68	11.6	3.8	9.72	3.9	3.32	0.434	8.25	1.32	1.32	1.35	2.7	1.09	0.688	1.2	1.64
COc1cc(Cl)cc(-c2nn(C(=O)NCCN3CCOCC3)cc2-c2ccncc2)c1	35.2	18.7	57.6	69.9	39.5	> 100	> 100	> 100	44.3	66	3.87	2.49	8.46	5.14	5.42	13	3.38	7.61	4.6	10.9
CC(C)(C)C#CC1=C(Br)C(=O)OC1	19.7	6.95	3.31	> 21.2	27	11	22.5	12.7	31.7	67	4.89	2.38	1.53	1.7	3.61	2.48	7.7	2.54	1.12	12.6
CNC(=O)c1cncc(/C=C/c2ccccc2C)c1	> 25	> 25	> 25	> 25	> 25	> 25	> 25	> 25	> 25	> 25	> 25	> 25	> 25	> 25	> 25	> 25	> 25	> 25	> 25	> 25
O=CNc1c(Cl)cc2c(c1Cl)Cc1cc([N+](=O)[O-])ccc1-2	> 86.9	> 91.2	> 49.9	> 54.7	> 54.6	47.7	> 29.1	> 100	> 86.6	> 100	16.3	8.34	7.72	4.59	2.92	8.16	3.05	11.6	20.2	27.9
C=CCc1c2c(c(OC)c3ccoc13)C(=O)/C(=C/c1ccccc1OC)O2	> 100	35.2	> 100	27.1	> 100	> 100	31.7	> 100	> 100	> 100	4.44	3.15	3.19	3.13	8.19	4.59	3.16	3.87	5.21	6.06
